Laboratory results as given in PMC9646673, “A Novel, Orally Bioavailable, Small-Molecule Inhibitor of PCSK9 With Significant Cholesterol-Lowering Properties In Vivo” (Journal of Lipid Research, 2022).
“And” between values parts separate entries of the source, which are not always exact repeats. Equal values may be shown once. Read-outs that look alike come from different tables or passages of the source.

How the values were obtained:
PCSK9-LDLR interaction = biological target: T1, PCSK9-LDLR interaction (Homo sapiens, UniProt Q8NBP7); test: CircuLex PCSK9-LDLR in vitro binding assay; details: in vitro biochemical binding assay; read-out: IC50 against the PCSK9-LDLR interaction
T1 construct: purchased CycLex (Nagano, Japan) CY8150
Excerpt: (§1) Ethics was granted by the Comité de Protection des Personnes Sud Méditerranée (ID: 2020-A00196-33). Studies using human samples abided by the Declaration of Helsinki principles.

APOE∗3-Leiden.CETP mice [1] = test: First efficacy study (28 days): plasma lipids; type: in vivo, mouse
Excerpt: (§2) Animal experiments were approved by the governmental central committee on animal experiments (AVD5010020172064) and TNO’s animal welfare body (TNO-471 and TNO-482). Female APOE∗3-Leiden.CETP transgenic mice (11–16 weeks of age) were bred at the animal facility of TNO-InnoSer (Leiden, The Netherlands). Female animals were used in this study as they are more responsive to dietary cholesterol and fat than males and therefore typically develop atherosclerosis more rapidly than male APOE∗3-Leiden and APOE∗3-Leiden.CETP mice on cholesterol-containing diets ([33], [34]). Although measurements of atherosclerosis were not included as part of the present study, females were used with the prospect in mind that atherosclerosis studies will follow. The mice were housed under standard conditions that included 12 h light-dark cycles and access to a WTD and sterilized tap water ad libitum. Body weight, food intake, and clinical signs of behavior were monitored throughout the studies. […] Time t = 0 (weeks) was designated as the time at which mice were matched into groups after the 3-week run-in period in each efficacy study.
Treatment times were around 8:00 am and 4:00 pm each day. Throughout the in-life phase of the study, body weight and food intake (per cage) were measured at regular predetermined intervals while blood samples were collected every 7 days. The last gavage was administered on day 27. On day 28, the mice were sacrificed by CO2 asphyxiation, EDTA-plasma was obtained via heart puncture, and the liver was weighed and collected. Throughout the study, plasma cholesterol, triglycerides, HDL-C, lipoprotein profiles, PCSK9 expression levels, aspartate transaminase levels (AST), and alanine transaminase levels (ALT) were measured as described below.
(§3) In both studies, blood samples were collected at weekly intervals via tail vein sampling after fasting the mice for 4 h. Blood samples were centrifugated (4500 g at 4°C), and the plasma was collected for the following analyses. Total plasma cholesterol levels were determined using a Cholesterol CHOD-PAP kit according to the manufacturer’s instructions. Plasma HDL-C levels were determined by first precipitating apoB-containing lipids using PEG 6000/glycine and then utilizing the Cholesterol CHOD-PAP kit ([35]). Non-HDL-C levels were determined by subtracting HDL-C levels from total cholesterol levels ([32]). Group-pooled lipoprotein profiles were determined by FPLC analysis using an AKTApurifier 10 FPLC system (GE Healthcare, Chicago, IL). Plasma PCSK9 levels were determined using a Mouse PCSK9 Quantikine ELISA kit as per the manufacturer’s protocol. ALT and AST levels of group-pooled samples were measured using the Roche Reflotron Plus System (Mannheim, Germany).

PCSK9-D374Y = biological target: T2, PCSK9-D374Y (Homo sapiens, UniProt Q8NBP7, D374Y); test: ex vivo lymphocyte LDLR surface expression assay with recombinant PCSK9-D374Y; type: cell-based; details: 4 μM, relative to PCSK9 D374Y and vehicle
T2 construct: purchased CycLex (Nagano, Japan); host or cells: added to primary human lymphocytes (PBMCs from a human donor)
Excerpt: as §1

APOE∗3-Leiden.CETP mice [2] = test: Second efficacy study (35 days, with atorvastatin): plasma lipids; type: in vivo, mouse
Excerpt: as §2, §3

[3] = Pharmacokinetic study, single dose PO/SC/IV; type: in vivo, female C57BL/6 mice; details: female, C57BL/6, mouse, plasma; for AUC(0-inf): read-out: AUC Infinity; for MRT inf: read-out: MRT Infinity
Procedure: Pharmacokinetic study protocols were reviewed and approved by the Institutional Animal Care and Use Committee of ChemPartner (Shanghai, China) under ethics A998HL0119. Female C57BL/6 mice aged 10–14 weeks (18–21 g) were purchased from Jihui Laboratory Animal Co. Ltd. (Shanghai, China) and were given ad libitum access to water and food throughout the in-life phase of the studies. […] At designated timepoints (t = 0.083, 0.25, 0.5, 1, 2, 4, 8, and 24 h), the animals were manually restrained, and 110 μl of blood per timepoint was collected into precooled EDTA-K2 tubes via the facial vein. […] Bioavailability was determined by comparing the plasma exposure levels (AUClast) of NYX-PCSK9i when given orally with plasma exposure levels obtained via the IV route.

[4] = 30 mg/kg BID PO, day 0 (baseline)
[5] = 50 mg/kg BID PO, day 0 (baseline)
[6] = 30 and 50 mg/kg BID PO, 28 days
[7] = day 0 (baseline), NYX-PCSK9i 50 mg/kg BID PO
[8] = day 14, NYX-PCSK9i 50 mg/kg BID PO
[9] = day 28, NYX-PCSK9i 50 mg/kg BID PO
[10] = day 35, NYX-PCSK9i 50 mg/kg BID PO

T1 sequence (Q8NBP7 153-692): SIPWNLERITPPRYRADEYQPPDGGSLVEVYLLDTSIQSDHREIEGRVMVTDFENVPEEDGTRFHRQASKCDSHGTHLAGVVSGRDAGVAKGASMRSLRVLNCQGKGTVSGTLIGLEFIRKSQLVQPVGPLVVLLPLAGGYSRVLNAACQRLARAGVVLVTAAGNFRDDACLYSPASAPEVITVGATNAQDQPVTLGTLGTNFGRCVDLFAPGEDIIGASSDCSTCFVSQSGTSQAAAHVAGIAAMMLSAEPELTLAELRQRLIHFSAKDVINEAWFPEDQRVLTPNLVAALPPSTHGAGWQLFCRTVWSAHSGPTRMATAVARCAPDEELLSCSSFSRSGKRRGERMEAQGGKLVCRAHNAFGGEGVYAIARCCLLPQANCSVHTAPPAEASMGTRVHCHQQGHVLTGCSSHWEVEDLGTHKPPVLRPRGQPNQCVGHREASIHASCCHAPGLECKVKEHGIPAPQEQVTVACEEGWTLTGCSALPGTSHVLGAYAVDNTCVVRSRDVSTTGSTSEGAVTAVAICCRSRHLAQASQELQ
T1 sequence (Q8NBP7 31-152 partner limits assumed): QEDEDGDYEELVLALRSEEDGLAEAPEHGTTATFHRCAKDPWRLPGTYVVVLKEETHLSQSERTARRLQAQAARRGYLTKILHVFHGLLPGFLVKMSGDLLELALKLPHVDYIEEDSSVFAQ
T2 sequence (Q8NBP7 153-692 D374Y): as the sequence (Q8NBP7 153-692) above, with D222Y counted along it
T2 sequence (Q8NBP7 31-152 partner limits assumed): as the sequence (Q8NBP7 31-152 partner limits assumed) above

Cc1cn(-c2cc(CN3CCC[C@H](N)C3)cc(NC(=O)c3cc(-c4ccccc4)ccn3)c2)cn1 [NYX-PCSK9i]
IC50 (PCSK9-LDLR interaction): 0.323 µM | Plasma HDL- cholesterol (mean ± SEM) (APOE∗3-Leiden.CETP mice [1]; [4]): 0.9 ± 0.2 mmol/L | Plasma non-HDL- cholesterol (mean ± SEM) (APOE∗3-Leiden.CETP mice [1]; [4]): 14.7 ± 1.6 mmol/L | Plasma triglycerides (mean ± SD) (APOE∗3-Leiden.CETP mice [1]; [4]): 5.7 ± 2.2 mmol/L | Plasma triglycerides (mean ± SD) (APOE∗3-Leiden.CETP mice [1]; 30 mg/kg BID PO, day 7): 7.0 ± 2.0 mmol/L | Plasma HDL- cholesterol (mean ± SEM) (APOE∗3-Leiden.CETP mice [1]; 30 mg/kg BID PO, day 14): 0.4 ± 0.1 mmol/L | Plasma non-HDL- cholesterol (mean ± SEM) (APOE∗3-Leiden.CETP mice [1]; 30 mg/kg BID PO, day 14): 13.1 ± 2.2 mmol/L | Plasma triglycerides (mean ± SD) (APOE∗3-Leiden.CETP mice [1]; 30 mg/kg BID PO, day 14): 8.9 ± 1.8 mmol/L | Plasma triglycerides (mean ± SD) (APOE∗3-Leiden.CETP mice [1]; 30 mg/kg BID PO, day 21): 6.1 ± 1.5 mmol/L | Plasma HDL- cholesterol (mean ± SEM) (APOE∗3-Leiden.CETP mice [1]; 30 mg/kg BID PO, day 28): 0.8 ± 0.2 mmol/L | Plasma non-HDL- cholesterol (mean ± SEM) (APOE∗3-Leiden.CETP mice [1]; 30 mg/kg BID PO, day 28): 10.5 ± 1.4 mmol/L | Plasma triglycerides (mean ± SD) (APOE∗3-Leiden.CETP mice [1]; 30 mg/kg BID PO, day 28): 5.7 ± 1.9 mmol/L | Plasma HDL- cholesterol (mean ± SEM) (APOE∗3-Leiden.CETP mice [1]; [5]): 0.8 ± 0.1 mmol/L | Plasma non-HDL- cholesterol (mean ± SEM) (APOE∗3-Leiden.CETP mice [1]; [5]): 14.6 ± 2.5 mmol/L | Plasma triglycerides (mean ± SD) (APOE∗3-Leiden.CETP mice [1]; [5]): 6.1 ± 1.9 mmol/L | Plasma triglycerides (mean ± SD) (APOE∗3-Leiden.CETP mice [1]; 50 mg/kg BID PO, day 7): 5.9 ± 2.0 mmol/L | Plasma HDL- cholesterol (mean ± SEM) (APOE∗3-Leiden.CETP mice [1]; 50 mg/kg BID PO, day 14): 0.6 ± 0.2 mmol/L | Plasma non-HDL- cholesterol (mean ± SEM) (APOE∗3-Leiden.CETP mice [1]; 50 mg/kg BID PO, day 14): 9.8 ± 2.4 mmol/L | Plasma triglycerides (mean ± SD) (APOE∗3-Leiden.CETP mice [1]; 50 mg/kg BID PO, day 14): 5.2 ± 1.7 mmol/L | Plasma triglycerides (mean ± SD) (APOE∗3-Leiden.CETP mice [1]; 50 mg/kg BID PO, day 21): 4.2 ± 1.3 mmol/L | Plasma HDL- cholesterol (mean ± SEM) (APOE∗3-Leiden.CETP mice [1]; 50 mg/kg BID PO, day 28): 0.9 ± 0.2 mmol/L | Plasma non-HDL- cholesterol (mean ± SEM) (APOE∗3-Leiden.CETP mice [1]; 50 mg/kg BID PO, day 28): 6.8 ± 1.5 mmol/L | Plasma triglycerides (mean ± SD) (APOE∗3-Leiden.CETP mice [1]; 50 mg/kg BID PO, day 28): 4.1 ± 1.2 mmol/L | reduction of total cholesterol in absolute terms (APOE∗3-Leiden.CETP mice [1]; 50 mg/kg BID PO, day 28): 10.1 mM and 390 mg/dl | HDL-C levels (APOE∗3-Leiden.CETP mice [1]; [6]): no consistent reduction in HDL-C levels | Mean plasma triglyceride levels (APOE∗3-Leiden.CETP mice [1]; [6]): essentially unchanged | LDLR expression levels on surface of human lymphocytes (PCSK9-D374Y): large and significant increase in LDLR expression levels | Plasma HDL-cholesterol (APOE∗3-Leiden.CETP mice [2]; [7]): 0.9 ± 0.1 mmol/L | Plasma non- HDL-cholesterol (APOE∗3-Leiden.CETP mice [2]; [7]): 14.6 ± 2.5 mmol/L | Plasma triglycerides (mean ± SD) (APOE∗3-Leiden.CETP mice [2]; [7]): 5.3 ± 1.4 mmol/L | Plasma triglycerides (mean ± SD) (APOE∗3-Leiden.CETP mice [2]; day 7, NYX-PCSK9i 50 mg/kg BID PO): 8.9 ± 3.3 mmol/L | Plasma HDL-cholesterol (APOE∗3-Leiden.CETP mice [2]; [8]): 0.7 ± 0.4 mmol/L | Plasma non- HDL-cholesterol (APOE∗3-Leiden.CETP mice [2]; [8]): 12.7 ± 0.6 mmol/L | Plasma triglycerides (mean ± SD) (APOE∗3-Leiden.CETP mice [2]; [8]): 8.6 ± 2.7 mmol/L | Plasma triglycerides (mean ± SD) (APOE∗3-Leiden.CETP mice [2]; day 21, NYX-PCSK9i 50 mg/kg BID PO): 7.1 ± 1.6 mmol/L | Plasma HDL-cholesterol (APOE∗3-Leiden.CETP mice [2]; [9]): 0.8 ± 0.2 mmol/L | Plasma non- HDL-cholesterol (APOE∗3-Leiden.CETP mice [2]; [9]): 11.8 ± 2.8 mmol/L | Plasma triglycerides (mean ± SD) (APOE∗3-Leiden.CETP mice [2]; [9]): 6.0 ± 1.7 mmol/L | Plasma HDL-cholesterol (APOE∗3-Leiden.CETP mice [2]; [10]): 0.7 ± 0.4 mmol/L | Plasma non- HDL-cholesterol (APOE∗3-Leiden.CETP mice [2]; [10]): 12.8 ± 2.8 mmol/L | Plasma triglycerides (mean ± SD) (APOE∗3-Leiden.CETP mice [2]; [10]): 5.8 ± 1.7 mmol/L | AUC(0-t) ([3]; iv, 5 mg/kg, 5 mg/kg IV): 2.01 µg·h/mL | AUC(0-t) ([3]; po, 50 mg/kg, 50 mg/kg PO): ~8.1 µg·h/mL | AUC(0-t) ([3]; sc, 50 mg/kg, 50 mg/kg SC): 25.5 µg·h/mL | clearance ([3]; 5 mg/kg IV): 2.29 L/h/kg | half-life ([3]; 5 mg/kg IV): 7.48 h | AUC(0-inf) ([3]; 5 mg/kg IV): 2.19 µg·h/mL | MRT inf ([3]; 5 mg/kg IV): 6.42 h | Vd ([3]; 5 mg/kg IV, read-out: Vss): 14.7 L/kg | half-life ([3]; 50 mg/kg PO): 6.29 h | AUC(0-inf) ([3]; 50 mg/kg PO): 8.7 µg·h/mL | MRT inf ([3]; 50 mg/kg PO): 7.07 h | half-life ([3]; 50 mg/kg SC): 9.11 h | AUC(0-inf) ([3]; 50 mg/kg SC): 30.4 µg·h/mL | MRT inf ([3]; 50 mg/kg SC): 12.2 h | bioavailability ([3]; AUClast 50 mg/kg PO vs 5 mg/kg IV): 40%
